Assays:
Experiment in all cases: Kinase panel profiling
Assay type in all cases: biochemical
Conditions in all cases: 10 μM ATP
[1] = biological target: T1, HGK/MAP4K4 (Homo sapiens, UniProt O95819)
T1 construct: purchased Reaction Biology Corp
Method: (§1) Kinase panel profiling was conducted by Reaction Biology Corp. (San Diego, CA, USA). A single dose (1.0 μM) of 6r was tested against 371 recombinant human kinases in the presence of 10 μM ATP.

[2] = biological target: T2, TNK1 (Homo sapiens, UniProt Q13470)
T2 construct: purchased Reaction Biology Corp
Method: as §1

[3] = biological target: T3, SRPK2 (Homo sapiens, UniProt P78362)
T3 construct: purchased Reaction Biology Corp
Method: as §1

[4] = biological target: T4, TTBK1 (Homo sapiens, UniProt Q5TCY1)
T4 construct: purchased Reaction Biology Corp
Method: as §1

[5] = biological target: T5, SGK3/SGKL (Homo sapiens, UniProt Q96BR1)
T5 construct: purchased Reaction Biology Corp
Method: as §1

[6] = biological target: T6, TRKC (Homo sapiens, UniProt Q16288)
T6 construct: purchased Reaction Biology Corp
Method: as §1

[7] = biological target: T7, NEK5 (Homo sapiens, UniProt Q6P3R8)
T7 construct: purchased Reaction Biology Corp
Method: as §1

[8] = biological target: T8, LIMK1 (Homo sapiens, UniProt P53667)
T8 construct: purchased Reaction Biology Corp
Method: as §1

[9] = biological target: T9, PDGFRa (Homo sapiens, UniProt P16234)
T9 construct: purchased Reaction Biology Corp
Method: as §1

[10] = biological target: T10, EPHB3 (Homo sapiens, UniProt P54753)
T10 construct: purchased Reaction Biology Corp
Method: as §1

[11] = biological target: T11, FGFR4 (Homo sapiens, UniProt P22455)
T11 construct: purchased Reaction Biology Corp
Method: as §1

[12] = biological target: T12, c-Src (Homo sapiens, UniProt P12931)
T12 construct: purchased Reaction Biology Corp
Method: as §1

[13] = biological target: T13, ERK5/MAPK7 (Homo sapiens, UniProt Q13164)
T13 construct: purchased Reaction Biology Corp
Method: as §1

[14] = biological target: T14, PKG2/PRKG2 (Homo sapiens, UniProt Q13237)
T14 construct: purchased Reaction Biology Corp
Method: as §1

[15] = biological target: T15, ERK7/MAPK15 (Homo sapiens, UniProt Q8TD08)
T15 construct: purchased Reaction Biology Corp
Method: as §1

[16] = biological target: T16, EPHA4 (Homo sapiens, UniProt P54764)
T16 construct: purchased Reaction Biology Corp
Method: as §1

[17] = biological target: T17, NEK3 (Homo sapiens, UniProt P51956)
T17 construct: purchased Reaction Biology Corp
Method: as §1

[18] = biological target: T18, MST3/STK24 (Homo sapiens, UniProt Q9Y6E0)
T18 construct: purchased Reaction Biology Corp
Method: as §1

[19] = biological target: T19, GRK4 (Homo sapiens, UniProt P32298)
T19 construct: purchased Reaction Biology Corp
Method: as §1

[20] = biological target: T20, ASK1/MAP3K5 (Homo sapiens, UniProt Q99683)
T20 construct: purchased Reaction Biology Corp
Method: as §1

[21] = biological target: T21, MEK5 (Homo sapiens, UniProt Q13163)
T21 construct: purchased Reaction Biology Corp
Method: as §1

[22] = biological target: T22, PKN3/PRK3 (Homo sapiens, UniProt Q6P5Z2)
T22 construct: purchased Reaction Biology Corp
Method: as §1

[23] = biological target: T23, MLK3/MAP3K11 (Homo sapiens, UniProt Q16584)
T23 construct: purchased Reaction Biology Corp
Method: as §1

[24] = biological target: T24, RSK2 (Homo sapiens, UniProt P51812)
T24 construct: purchased Reaction Biology Corp
Method: as §1

[25] = biological target: T25, CK1a1L (Homo sapiens, UniProt Q8N752)
T25 construct: purchased Reaction Biology Corp
Method: as §1

[26] = biological target: T26, AURORA B (Homo sapiens, UniProt Q96GD4)
T26 construct: purchased Reaction Biology Corp
Method: as §1

[27] = biological target: T27, BMX/ETK (Homo sapiens, UniProt P51813)
T27 construct: purchased Reaction Biology Corp
Method: as §1

[28] = biological target: T28, AKT1 (Homo sapiens, UniProt P31749)
T28 construct: purchased Reaction Biology Corp
Method: as §1

[29] = biological target: T29, JNK2 (Homo sapiens, UniProt P45984)
T29 construct: purchased Reaction Biology Corp
Method: as §1

[30] = biological target: T30, PIM3 (Homo sapiens, UniProt Q86V86)
T30 construct: purchased Reaction Biology Corp
Method: as §1

[31] = biological target: T31, p70S6Kb/RPS6KB2 (Homo sapiens, UniProt Q9UBS0)
T31 construct: purchased Reaction Biology Corp
Method: as §1

[32] = biological target: T32, GRK7 (Homo sapiens, UniProt Q8WTQ7)
T32 construct: purchased Reaction Biology Corp
Method: as §1

[33] = biological target: T33, CDK2/cyclin O (Homo sapiens, UniProt P24941)
T33 construct: purchased Reaction Biology Corp
Method: as §1

[34] = biological target: T34, CLK4 (Homo sapiens, UniProt Q9HAZ1)
T34 construct: purchased Reaction Biology Corp
Method: as §1

[35] = biological target: T35, CDK6/cyclin D3 (Homo sapiens, UniProt Q00534)
T35 construct: purchased Reaction Biology Corp
Method: as §1

[36] = biological target: T36, MINK/MINK1 (Homo sapiens, UniProt Q8N4C8)
T36 construct: purchased Reaction Biology Corp
Method: as §1

[37] = biological target: T37, ROCK2 (Homo sapiens, UniProt O75116)
T37 construct: purchased Reaction Biology Corp
Method: as §1

[38] = biological target: T38, GRK3 (Homo sapiens, UniProt P35626)
T38 construct: purchased Reaction Biology Corp
Method: as §1

[39] = biological target: T39, DYRK3 (Homo sapiens, UniProt O43781)
T39 construct: purchased Reaction Biology Corp
Method: as §1

[40] = biological target: T40, ALK (Homo sapiens, UniProt Q9UM73)
T40 construct: purchased Reaction Biology Corp
Method: as §1

[41] = biological target: T41, MLCK2/MYLK2 (Homo sapiens, UniProt Q9H1R3)
T41 construct: purchased Reaction Biology Corp
Method: as §1

[42] = biological target: T42, MKK7 (Homo sapiens, UniProt O14733)
T42 construct: purchased Reaction Biology Corp
Method: as §1

T21 sequence (Q13163 whole entry): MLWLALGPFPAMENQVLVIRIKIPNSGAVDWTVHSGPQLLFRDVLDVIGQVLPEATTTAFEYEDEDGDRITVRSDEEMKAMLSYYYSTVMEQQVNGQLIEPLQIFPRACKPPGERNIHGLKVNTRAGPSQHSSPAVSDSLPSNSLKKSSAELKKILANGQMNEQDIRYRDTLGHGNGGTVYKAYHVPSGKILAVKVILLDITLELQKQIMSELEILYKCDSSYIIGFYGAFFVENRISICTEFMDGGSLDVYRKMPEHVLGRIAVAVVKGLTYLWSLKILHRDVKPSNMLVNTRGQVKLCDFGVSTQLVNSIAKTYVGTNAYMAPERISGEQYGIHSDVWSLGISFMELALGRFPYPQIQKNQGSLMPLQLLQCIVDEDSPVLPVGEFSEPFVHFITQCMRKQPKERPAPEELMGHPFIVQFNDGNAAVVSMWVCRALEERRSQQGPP
T25 sequence (Q8N752 whole entry): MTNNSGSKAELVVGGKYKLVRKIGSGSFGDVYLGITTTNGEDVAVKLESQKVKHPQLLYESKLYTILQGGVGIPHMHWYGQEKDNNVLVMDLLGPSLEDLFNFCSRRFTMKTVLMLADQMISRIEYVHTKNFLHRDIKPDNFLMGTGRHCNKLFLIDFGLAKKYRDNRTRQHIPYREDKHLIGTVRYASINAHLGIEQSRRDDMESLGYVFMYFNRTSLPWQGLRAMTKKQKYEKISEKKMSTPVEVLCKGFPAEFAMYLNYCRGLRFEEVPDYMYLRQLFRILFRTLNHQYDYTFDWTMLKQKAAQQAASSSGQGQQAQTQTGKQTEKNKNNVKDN
T11 sequence (P22455 22-802): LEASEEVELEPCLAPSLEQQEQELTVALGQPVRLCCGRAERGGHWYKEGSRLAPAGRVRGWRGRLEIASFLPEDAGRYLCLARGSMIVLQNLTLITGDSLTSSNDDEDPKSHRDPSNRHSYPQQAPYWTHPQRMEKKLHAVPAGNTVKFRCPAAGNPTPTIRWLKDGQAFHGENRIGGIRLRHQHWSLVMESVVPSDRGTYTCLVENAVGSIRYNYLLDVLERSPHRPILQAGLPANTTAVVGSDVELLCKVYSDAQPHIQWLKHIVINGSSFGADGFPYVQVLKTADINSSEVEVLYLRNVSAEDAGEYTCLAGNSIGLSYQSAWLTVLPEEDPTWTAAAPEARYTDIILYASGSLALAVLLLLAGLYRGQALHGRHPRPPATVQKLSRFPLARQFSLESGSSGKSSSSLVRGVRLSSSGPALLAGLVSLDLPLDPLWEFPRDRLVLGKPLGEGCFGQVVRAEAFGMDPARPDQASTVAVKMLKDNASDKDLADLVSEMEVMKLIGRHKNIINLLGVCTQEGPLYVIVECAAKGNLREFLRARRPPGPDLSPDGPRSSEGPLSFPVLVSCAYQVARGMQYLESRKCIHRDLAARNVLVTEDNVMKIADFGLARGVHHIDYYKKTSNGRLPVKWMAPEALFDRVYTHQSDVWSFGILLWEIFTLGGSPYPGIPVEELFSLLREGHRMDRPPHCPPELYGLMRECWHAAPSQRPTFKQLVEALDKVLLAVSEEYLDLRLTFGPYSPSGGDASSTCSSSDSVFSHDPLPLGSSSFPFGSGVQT
T34 sequence (Q9HAZ1 whole entry): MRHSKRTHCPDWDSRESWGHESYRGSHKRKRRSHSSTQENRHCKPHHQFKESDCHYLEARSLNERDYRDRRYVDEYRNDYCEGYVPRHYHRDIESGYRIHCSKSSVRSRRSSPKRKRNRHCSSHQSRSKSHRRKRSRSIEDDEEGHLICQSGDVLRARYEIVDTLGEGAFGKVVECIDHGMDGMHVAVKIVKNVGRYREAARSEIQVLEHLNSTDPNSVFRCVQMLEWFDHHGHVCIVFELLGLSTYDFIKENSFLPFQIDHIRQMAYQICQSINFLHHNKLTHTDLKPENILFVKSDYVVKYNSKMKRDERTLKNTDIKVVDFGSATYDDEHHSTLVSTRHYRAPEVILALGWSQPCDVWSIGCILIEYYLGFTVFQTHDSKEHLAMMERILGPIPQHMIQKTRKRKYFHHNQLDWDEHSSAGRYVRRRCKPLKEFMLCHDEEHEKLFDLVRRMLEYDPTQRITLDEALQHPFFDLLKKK
T20 sequence (Q99683 whole entry): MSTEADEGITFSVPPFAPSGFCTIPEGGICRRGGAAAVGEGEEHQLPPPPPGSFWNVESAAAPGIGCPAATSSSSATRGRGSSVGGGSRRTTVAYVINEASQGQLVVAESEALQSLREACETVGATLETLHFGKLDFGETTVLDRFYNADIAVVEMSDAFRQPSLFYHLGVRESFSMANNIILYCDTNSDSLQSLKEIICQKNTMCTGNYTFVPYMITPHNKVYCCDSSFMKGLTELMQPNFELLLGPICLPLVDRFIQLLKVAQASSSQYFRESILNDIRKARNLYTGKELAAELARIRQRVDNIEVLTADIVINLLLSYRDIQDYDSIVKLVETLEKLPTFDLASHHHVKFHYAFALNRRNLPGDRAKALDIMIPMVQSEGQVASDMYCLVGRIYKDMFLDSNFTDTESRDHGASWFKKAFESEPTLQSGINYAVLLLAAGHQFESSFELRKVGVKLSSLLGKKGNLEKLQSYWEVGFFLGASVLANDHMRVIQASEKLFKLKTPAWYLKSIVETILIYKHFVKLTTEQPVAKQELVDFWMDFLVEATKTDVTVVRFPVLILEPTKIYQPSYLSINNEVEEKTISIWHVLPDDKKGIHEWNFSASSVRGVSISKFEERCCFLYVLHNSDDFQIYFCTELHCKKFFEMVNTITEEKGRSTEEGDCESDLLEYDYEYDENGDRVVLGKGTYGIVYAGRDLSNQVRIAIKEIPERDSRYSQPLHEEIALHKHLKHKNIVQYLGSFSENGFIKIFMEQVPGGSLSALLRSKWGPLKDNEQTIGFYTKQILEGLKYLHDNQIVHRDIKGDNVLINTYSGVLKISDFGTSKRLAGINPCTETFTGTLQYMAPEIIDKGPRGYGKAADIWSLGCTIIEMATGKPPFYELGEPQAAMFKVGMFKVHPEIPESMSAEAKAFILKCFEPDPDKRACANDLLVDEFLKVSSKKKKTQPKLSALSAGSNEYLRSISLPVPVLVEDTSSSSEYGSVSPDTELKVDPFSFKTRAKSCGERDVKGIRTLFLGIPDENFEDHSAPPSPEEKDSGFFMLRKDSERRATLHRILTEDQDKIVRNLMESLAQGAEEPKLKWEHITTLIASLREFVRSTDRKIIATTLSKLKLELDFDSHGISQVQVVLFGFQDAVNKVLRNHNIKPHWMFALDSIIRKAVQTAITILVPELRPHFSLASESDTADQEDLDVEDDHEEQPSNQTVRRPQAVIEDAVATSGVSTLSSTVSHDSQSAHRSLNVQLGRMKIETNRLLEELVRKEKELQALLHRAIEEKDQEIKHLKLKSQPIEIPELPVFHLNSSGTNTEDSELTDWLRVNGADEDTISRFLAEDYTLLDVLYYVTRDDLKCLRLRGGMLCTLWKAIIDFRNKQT
T5 sequence (Q96BR1 whole entry): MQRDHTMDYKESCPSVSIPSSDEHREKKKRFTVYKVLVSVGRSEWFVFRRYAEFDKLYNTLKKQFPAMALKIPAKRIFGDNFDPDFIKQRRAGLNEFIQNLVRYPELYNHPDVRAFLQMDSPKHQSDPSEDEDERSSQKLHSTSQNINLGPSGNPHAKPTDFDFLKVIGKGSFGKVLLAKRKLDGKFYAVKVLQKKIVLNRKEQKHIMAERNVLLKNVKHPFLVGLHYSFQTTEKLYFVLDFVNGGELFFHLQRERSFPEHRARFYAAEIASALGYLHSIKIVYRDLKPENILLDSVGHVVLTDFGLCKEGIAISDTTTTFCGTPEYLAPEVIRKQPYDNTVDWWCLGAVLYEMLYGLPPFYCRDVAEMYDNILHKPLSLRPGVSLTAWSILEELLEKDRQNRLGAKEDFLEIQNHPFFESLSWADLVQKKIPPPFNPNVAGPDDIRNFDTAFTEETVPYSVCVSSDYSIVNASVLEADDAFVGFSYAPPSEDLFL
T24 sequence (P51812 whole entry): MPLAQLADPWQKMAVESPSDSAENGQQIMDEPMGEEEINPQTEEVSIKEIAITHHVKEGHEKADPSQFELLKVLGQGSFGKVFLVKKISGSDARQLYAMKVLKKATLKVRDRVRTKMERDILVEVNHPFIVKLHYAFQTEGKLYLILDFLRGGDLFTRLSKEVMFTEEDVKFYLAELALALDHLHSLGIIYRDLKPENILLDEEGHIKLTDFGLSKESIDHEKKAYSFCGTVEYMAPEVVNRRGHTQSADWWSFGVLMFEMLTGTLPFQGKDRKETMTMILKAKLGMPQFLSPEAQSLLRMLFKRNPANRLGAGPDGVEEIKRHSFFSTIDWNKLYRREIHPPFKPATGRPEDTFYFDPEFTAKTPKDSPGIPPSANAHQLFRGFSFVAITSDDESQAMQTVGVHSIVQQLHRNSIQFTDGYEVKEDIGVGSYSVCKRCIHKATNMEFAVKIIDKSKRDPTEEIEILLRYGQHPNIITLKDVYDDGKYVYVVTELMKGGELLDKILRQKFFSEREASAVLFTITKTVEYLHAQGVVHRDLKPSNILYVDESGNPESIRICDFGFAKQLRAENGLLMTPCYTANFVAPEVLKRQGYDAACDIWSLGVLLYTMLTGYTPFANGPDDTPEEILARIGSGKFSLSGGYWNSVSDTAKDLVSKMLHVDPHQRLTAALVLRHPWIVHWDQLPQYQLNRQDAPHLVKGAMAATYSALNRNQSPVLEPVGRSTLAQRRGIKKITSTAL

## Cc1ccc(NC(=O)c2ccc(CN3CCN(C)CC3)c(C(F)(F)F)c2)cc1-c1cnc2sc(N)nc2c1 [6r]
[1]
  inhibition at 1 µM: 0%
[2]
  inhibition at 1 µM: 36.2%
[3]
  inhibition at 1 µM: 9%
[4]
  inhibition at 1 µM: 9.9%
[5]
  inhibition at 1 µM: 0.8%
[6]
  inhibition at 1 µM: 13.6%
[7]
  inhibition at 1 µM: 0%
[8]
  inhibition at 1 µM: 87.2%
[9]
  inhibition at 1 µM: 96.7%
[10]
  inhibition at 1 µM: 42.5%
[11]
  inhibition at 1 µM: 30.1%
[12]
  inhibition at 1 µM: 68.7%
[13]
  inhibition at 1 µM: 6.5%
[14]
  inhibition at 1 µM: 9.1%
[15]
  inhibition at 1 µM: 4.2%
[16]
  inhibition at 1 µM: 64.7%
[17]
  inhibition at 1 µM: 0%
[18]
  inhibition at 1 µM: 12.5%
[19]
  inhibition at 1 µM: 0%
[20]
  inhibition at 1 µM: 0%
[21]
  inhibition at 1 µM: 6.5%
[22]
  inhibition at 1 µM: 8.6%
[23]
  inhibition at 1 µM: 23.7%
[24]
  inhibition at 1 µM: 32.4%
[25]
  inhibition at 1 µM: 8.5%
[26]
  inhibition at 1 µM: 0%
[27]
  inhibition at 1 µM: 31.5%
[28]
  inhibition at 1 µM: 0%
[29]
  inhibition at 1 µM: 31.8%
[30]
  inhibition at 1 µM: 3.4%
[31]
  inhibition at 1 µM: 34%
[32]
  inhibition at 1 µM: 7.5%
[33]
  inhibition at 1 µM: 12.3%
[34]
  inhibition at 1 µM: 7.7%
[35]
  inhibition at 1 µM: 4.2%
[36]
  inhibition at 1 µM: 0%
[37]
  inhibition at 1 µM: 0.6%
[38]
  inhibition at 1 µM: 0%
[39]
  inhibition at 1 µM: 0%
[40]
  inhibition at 1 µM: 0%
[41]
  inhibition at 1 µM: 4.8%
[42]
  inhibition at 1 µM: 7.3%
